Data from ChEMBL document CHEMBL1201862, “PubChem BioAssay data set” (2004).
Activity calls are given as the source filed them.

Key:
Fatty acid synthase [1] = molecular target: T1, Fatty acid synthase (Homo sapiens, UniProt P49327); test: FAS thioesterase domain inhibitors, dose response, biochemical, endpoint fluorescence intensity, uHTS hits (AID 624327); type: functional;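 further: fluorescence from hydrolysis of an O-methyl fluorescein acyl ester substrate by the enzyme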
Fatty acid synthase [2] = molecular target: T1, Fatty acid synthase; test: FAS thioesterase domain inhibitors, dose response, biochemical, kinetic fluorescence intensity (AID 624326); type: functional;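 further: rate of fluorescence rise from hydrolysis of a fluorogenic O-methyl fluorescein ester substrate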
[3] = molecular target: T2, Replicative DNA helicase DnaB (Mycobacterium tuberculosis, UniProt P9WMR3); test: DnaB intein splicing inhibitors, dose response, biochemical, cell-free fluorescence (AID 449749); type: functional
T2 sequence (P9WMR3 whole entry): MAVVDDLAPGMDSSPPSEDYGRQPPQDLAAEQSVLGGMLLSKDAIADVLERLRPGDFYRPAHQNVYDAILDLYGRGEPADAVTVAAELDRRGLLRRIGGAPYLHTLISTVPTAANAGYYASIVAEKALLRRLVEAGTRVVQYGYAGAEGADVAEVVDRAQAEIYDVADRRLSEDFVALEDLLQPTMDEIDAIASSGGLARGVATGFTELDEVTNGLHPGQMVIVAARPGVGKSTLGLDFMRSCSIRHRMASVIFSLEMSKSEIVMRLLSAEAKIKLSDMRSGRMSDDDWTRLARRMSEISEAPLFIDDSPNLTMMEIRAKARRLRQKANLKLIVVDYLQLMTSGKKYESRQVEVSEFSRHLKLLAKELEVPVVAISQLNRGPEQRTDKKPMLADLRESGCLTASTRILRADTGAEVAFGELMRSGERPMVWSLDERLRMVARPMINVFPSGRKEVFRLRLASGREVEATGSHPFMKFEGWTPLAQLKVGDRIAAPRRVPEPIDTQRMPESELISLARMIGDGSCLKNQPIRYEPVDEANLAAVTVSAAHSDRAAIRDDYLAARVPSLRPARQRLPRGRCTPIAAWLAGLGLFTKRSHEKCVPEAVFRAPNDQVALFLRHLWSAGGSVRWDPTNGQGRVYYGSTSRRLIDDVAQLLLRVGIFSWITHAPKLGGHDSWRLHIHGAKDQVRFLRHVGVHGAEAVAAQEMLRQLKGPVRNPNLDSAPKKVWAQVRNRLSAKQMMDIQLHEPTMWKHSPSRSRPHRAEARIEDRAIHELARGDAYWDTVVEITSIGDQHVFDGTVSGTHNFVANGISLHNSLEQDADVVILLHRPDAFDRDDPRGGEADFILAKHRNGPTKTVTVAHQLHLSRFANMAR

Protein RecA = molecular target: T3, Protein RecA (Mycobacterium tuberculosis, UniProt P9WHJ3); test: Fluorescence Cell-Free Homogeneous Dose Retest to Identify Inhibitors of RecA-Intein Splicing Activity. [Related pubchem assays (depositor defined):AID2097, AID2223, AID489010, AID492950]; type: functional
T3 sequence (P9WHJ3 whole entry): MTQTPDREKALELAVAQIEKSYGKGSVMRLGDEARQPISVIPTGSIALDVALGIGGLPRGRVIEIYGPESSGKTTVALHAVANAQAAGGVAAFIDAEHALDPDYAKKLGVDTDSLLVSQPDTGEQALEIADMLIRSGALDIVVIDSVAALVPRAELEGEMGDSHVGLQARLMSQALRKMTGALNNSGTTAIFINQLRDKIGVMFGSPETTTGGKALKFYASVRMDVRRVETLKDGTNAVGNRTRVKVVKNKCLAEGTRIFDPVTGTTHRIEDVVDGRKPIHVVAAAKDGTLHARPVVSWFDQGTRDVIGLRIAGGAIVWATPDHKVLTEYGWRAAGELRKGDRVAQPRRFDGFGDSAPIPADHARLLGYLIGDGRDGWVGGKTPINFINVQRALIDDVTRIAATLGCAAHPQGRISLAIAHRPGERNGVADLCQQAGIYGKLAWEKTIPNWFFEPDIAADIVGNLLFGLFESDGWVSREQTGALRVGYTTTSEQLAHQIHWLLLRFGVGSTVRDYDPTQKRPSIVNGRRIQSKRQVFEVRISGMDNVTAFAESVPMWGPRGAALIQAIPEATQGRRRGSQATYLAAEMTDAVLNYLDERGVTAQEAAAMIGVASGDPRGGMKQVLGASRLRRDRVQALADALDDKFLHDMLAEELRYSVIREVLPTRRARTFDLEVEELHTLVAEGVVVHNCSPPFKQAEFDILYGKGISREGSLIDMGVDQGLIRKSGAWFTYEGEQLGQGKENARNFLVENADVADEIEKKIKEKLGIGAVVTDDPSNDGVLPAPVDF

[4] = Luminescence Cell-Based Dose Confirmation HTS to Identify Activators of 5'UTR Stem-Loop Driven Alpha-Synuclein mRNA Translation in H4 Neuroglioblastoma Cells. [Related pubchem assays: 1829 (Project Summary), 1814 (Primary HTS)]; type: functional
[5] = Luminescence Cell-Based Dose Response HTS to Identify Activators of Luciferase Translation or Activity in H4 […] Cells. [Related pubchem assays: 1829 (Project Summary), 1814 (Primary HTS)]; type: functional
H9c2 = test: cells; type: functional, cell-based; conditions: Rattus norvegicus, H9c2, Myocardium;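 further: confirmatory concentration-response retest of ultra-high-throughput screening hits for modulation of myocardial damage; cell death induced by hydrogen peroxide oxidative stress; compound pretreatment for 60 min then peroxide exposure for 2 h; potency is for protecting the cells against peroxide damage rather than for killing them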
H4 = test: Luminescence Cell-Based Dose Response HTS to Identify Activators of 5'UTR Stem-Loop Driven Prion Protein mRNA Translation in H4 Neuroglioblastoma Cells. [Related pubchem assays: 1829 (Project Summary), 1814 (Primary HTS)]; type: functional; conditions: Homo sapiens
Streptococcus = test: Group A Streptococcus viability loss, dose response, counter-screen for streptokinase expression inhibitor project, luminescence, BacTiterGlo (AID 1915); type: functional, organism-based;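 further: potency for reduction of bacterial viability or growth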
Streptokinase A = molecular target: T4, Streptokinase A (Streptococcus pyogenes serotype M1, UniProt P10520); test: S. pyogenes streptokinase expression inhibitors, potency, dose response, plasminogen activation absorbance, OD405 (AID 1914); type: functional, Streptococcus pyogenes M1 GAS;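 further: secreted streptokinase activity via plasminogen activation per viability signal from cell pellet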
T4 sequence (P10520 whole entry): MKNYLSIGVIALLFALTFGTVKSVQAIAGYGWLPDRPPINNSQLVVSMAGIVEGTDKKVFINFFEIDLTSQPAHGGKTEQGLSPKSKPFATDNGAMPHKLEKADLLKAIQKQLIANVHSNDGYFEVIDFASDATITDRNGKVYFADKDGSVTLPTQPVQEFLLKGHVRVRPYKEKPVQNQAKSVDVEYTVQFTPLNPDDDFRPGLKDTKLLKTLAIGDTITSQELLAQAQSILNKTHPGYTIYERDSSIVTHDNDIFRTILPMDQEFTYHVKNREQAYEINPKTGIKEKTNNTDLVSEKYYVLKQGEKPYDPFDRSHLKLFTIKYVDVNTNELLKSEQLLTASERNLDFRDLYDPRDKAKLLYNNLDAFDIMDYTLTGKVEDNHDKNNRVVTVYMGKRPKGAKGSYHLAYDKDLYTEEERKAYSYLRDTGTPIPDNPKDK

[6] = test system: Streptococcus sp. 'group A'; test: growth inhibition of control SK(-) GAS strain, dose response, counter-screen for streptokinase expression inhibitor project, luminescence, kanamycin, BacTiterGlo, confirmation (AID 1900); type: functional, organism-based
[7] = molecular target: T5, Polyadenylate-binding protein 1 (Homo sapiens, UniProt P11940); test: PABP1 MLLE–PAM2 binding inhibitor potency, dose response, biochemical, fluorescence polarization, FITC-PAM2 peptide (AID 602259); type: functional; conditions: read-out: IC50_Mean
[8] = molecular target: T5, Polyadenylate-binding protein 1; test: PABP1 MLLE–PAM2 interaction inhibitors, dose response, miRNA deadenylation inhibitor project, biochemical, fluorescence polarization, Cy5-PAM2 peptide, secondary (AID 602260); type: functional; conditions: read-out: IC50_Mean
Protein skinhead-1 = molecular target: T6, Protein skinhead-1 (Caenorhabditis elegans, UniProt P34707); type: functional
T6 sequence (P34707 whole entry): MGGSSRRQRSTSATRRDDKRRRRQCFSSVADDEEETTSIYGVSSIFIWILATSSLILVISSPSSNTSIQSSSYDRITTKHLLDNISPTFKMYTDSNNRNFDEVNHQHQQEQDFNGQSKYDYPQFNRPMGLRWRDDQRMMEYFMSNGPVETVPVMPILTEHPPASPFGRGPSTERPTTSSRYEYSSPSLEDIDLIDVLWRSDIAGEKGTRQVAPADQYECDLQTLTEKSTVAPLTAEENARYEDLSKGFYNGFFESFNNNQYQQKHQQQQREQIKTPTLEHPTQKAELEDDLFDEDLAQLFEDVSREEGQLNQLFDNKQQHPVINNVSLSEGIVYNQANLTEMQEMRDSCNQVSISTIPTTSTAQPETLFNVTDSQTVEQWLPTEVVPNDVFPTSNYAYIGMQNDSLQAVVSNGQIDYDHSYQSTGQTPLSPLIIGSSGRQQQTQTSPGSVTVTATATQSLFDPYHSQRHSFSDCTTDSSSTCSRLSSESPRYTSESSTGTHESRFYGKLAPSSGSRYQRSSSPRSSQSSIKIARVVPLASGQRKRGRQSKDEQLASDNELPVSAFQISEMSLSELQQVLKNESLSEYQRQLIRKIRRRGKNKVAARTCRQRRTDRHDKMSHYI

[9] = molecular target: Luciferin 4-monooxygenase (Photinus pyralis, UniProt P08659); test: firefly luciferase enzyme inhibitors, dose response, biochemical, luminescence (AID 1891)
[10] = Luminescence Cell-Based Dose Confirmation HTS to Identify Inhibitors of Platelet Dense Granule Release. [Related pubchem assays: 1663 (Primary HTS), 1678 (Summary of Project)]; type: functional
[11] = molecular target: T7, Corticotropin-releasing factor receptor 2/Corticotropin-releasing factor-binding protein (Homo sapiens, UniProt P24387+Q13324); test: activators of CRF receptor 2 with binding protein – uHTS hits, confirmation (AID 602473); type: functional; conditions: read-out: EC50_Mean
T7 sequence (Q13324 whole entry): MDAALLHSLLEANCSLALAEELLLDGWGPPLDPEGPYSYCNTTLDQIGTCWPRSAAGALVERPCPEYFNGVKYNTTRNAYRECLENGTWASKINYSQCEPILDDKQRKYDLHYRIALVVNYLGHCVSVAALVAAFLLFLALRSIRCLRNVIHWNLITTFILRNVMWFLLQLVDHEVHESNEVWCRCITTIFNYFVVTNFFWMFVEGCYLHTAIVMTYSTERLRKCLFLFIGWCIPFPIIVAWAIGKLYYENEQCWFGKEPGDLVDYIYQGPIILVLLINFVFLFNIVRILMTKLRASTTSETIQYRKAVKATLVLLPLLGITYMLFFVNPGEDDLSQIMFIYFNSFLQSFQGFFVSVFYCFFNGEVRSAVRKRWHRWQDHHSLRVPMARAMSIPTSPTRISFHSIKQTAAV
T7 sequence (P24387 whole entry): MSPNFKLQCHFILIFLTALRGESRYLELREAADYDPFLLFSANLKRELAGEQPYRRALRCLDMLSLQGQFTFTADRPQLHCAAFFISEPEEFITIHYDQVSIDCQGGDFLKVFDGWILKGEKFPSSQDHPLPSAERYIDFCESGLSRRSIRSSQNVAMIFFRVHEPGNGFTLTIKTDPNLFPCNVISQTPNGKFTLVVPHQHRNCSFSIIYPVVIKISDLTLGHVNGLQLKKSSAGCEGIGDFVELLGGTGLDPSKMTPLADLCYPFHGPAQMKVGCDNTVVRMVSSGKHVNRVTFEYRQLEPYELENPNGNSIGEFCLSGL

T5 sequence (P11940 whole entry): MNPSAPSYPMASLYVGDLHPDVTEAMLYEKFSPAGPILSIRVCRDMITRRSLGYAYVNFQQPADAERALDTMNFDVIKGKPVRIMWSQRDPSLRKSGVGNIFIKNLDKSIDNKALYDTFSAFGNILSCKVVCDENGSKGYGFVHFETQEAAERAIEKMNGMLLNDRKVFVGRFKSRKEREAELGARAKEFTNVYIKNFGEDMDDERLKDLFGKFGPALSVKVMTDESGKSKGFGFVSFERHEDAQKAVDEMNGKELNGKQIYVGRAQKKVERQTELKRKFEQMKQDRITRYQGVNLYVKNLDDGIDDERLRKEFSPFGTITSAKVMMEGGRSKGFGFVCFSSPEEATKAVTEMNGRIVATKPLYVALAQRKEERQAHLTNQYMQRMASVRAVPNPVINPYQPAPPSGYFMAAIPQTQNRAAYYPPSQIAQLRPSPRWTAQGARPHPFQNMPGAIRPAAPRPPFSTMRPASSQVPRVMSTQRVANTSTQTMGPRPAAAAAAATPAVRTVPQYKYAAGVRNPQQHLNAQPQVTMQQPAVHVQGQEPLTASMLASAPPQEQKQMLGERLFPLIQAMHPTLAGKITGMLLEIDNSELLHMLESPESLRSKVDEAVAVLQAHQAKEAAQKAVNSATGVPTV
T1 sequence (P49327 whole entry, the tested form may be a part): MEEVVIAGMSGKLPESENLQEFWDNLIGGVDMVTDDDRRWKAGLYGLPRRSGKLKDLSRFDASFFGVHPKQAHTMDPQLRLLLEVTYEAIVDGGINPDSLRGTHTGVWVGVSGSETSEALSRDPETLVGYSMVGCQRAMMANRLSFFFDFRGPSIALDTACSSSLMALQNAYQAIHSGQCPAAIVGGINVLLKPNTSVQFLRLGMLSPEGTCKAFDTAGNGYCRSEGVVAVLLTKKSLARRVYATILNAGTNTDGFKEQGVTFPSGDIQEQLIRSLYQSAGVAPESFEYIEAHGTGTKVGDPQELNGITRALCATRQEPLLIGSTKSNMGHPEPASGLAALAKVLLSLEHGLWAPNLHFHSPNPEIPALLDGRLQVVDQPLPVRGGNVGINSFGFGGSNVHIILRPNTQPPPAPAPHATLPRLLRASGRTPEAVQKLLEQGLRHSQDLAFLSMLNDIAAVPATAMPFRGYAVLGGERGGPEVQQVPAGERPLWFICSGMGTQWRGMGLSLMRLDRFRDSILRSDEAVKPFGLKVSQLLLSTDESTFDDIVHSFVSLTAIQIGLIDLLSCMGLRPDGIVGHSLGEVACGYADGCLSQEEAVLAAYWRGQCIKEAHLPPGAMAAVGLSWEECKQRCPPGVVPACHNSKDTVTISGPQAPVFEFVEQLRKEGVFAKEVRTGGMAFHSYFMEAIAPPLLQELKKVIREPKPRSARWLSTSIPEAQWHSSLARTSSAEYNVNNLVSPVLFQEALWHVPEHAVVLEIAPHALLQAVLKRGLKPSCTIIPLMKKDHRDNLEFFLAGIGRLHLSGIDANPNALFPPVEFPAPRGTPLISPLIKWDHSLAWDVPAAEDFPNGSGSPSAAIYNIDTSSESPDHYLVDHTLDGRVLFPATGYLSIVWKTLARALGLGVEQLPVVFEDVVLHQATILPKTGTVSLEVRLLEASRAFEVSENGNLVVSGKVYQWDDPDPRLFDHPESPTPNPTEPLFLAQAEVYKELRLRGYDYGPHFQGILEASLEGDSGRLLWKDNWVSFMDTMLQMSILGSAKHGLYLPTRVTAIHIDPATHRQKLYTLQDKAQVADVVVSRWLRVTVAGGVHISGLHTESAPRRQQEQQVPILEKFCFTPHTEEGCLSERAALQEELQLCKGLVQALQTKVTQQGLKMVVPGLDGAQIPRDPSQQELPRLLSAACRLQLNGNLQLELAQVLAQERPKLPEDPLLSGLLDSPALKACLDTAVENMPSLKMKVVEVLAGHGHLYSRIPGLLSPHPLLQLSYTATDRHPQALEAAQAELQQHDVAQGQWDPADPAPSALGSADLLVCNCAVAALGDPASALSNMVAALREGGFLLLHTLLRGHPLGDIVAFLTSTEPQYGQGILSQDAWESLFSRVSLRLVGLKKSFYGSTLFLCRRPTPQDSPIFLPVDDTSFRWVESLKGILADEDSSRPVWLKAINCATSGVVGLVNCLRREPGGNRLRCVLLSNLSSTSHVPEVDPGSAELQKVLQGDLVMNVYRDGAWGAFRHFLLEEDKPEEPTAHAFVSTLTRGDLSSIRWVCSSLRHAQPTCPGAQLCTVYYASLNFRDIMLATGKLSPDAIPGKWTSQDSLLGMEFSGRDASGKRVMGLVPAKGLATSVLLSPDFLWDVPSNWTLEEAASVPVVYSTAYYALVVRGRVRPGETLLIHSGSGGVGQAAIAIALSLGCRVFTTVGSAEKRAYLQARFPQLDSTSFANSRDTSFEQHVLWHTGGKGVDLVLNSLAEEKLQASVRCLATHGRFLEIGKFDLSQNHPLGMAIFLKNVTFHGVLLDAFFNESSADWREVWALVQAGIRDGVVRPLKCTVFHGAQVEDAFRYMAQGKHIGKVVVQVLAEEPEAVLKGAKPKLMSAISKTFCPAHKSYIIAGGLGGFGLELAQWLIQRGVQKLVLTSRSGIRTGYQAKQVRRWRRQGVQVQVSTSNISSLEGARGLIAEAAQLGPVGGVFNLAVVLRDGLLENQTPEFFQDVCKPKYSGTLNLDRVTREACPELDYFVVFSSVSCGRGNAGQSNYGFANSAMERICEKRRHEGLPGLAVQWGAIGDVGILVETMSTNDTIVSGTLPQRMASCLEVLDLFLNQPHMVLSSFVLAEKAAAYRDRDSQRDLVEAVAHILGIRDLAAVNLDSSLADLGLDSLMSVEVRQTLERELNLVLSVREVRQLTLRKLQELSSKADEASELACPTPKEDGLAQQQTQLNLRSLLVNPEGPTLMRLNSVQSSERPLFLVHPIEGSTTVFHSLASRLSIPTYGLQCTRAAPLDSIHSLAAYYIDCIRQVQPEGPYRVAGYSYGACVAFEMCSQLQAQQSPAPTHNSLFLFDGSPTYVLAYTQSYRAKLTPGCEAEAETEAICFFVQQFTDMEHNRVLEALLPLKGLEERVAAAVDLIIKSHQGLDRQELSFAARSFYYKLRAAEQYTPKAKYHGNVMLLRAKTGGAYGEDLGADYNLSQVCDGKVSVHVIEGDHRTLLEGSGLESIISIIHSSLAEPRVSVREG
Sequence of Luciferin 4-monooxygenase (P08659 whole entry): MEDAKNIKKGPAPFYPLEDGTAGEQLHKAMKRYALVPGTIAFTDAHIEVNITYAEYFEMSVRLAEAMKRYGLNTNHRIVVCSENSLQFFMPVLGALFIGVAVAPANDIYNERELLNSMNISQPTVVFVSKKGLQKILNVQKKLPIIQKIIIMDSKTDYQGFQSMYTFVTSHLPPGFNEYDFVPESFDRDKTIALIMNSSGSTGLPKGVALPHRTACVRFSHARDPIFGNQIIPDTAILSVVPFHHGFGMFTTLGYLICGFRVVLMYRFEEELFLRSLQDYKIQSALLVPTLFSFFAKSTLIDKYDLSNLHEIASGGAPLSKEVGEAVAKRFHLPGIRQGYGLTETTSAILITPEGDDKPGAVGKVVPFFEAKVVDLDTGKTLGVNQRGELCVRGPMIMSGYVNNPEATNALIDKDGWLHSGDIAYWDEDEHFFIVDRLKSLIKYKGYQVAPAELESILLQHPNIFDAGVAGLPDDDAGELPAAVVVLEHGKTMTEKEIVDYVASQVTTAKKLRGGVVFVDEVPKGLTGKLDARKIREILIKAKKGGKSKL

Row | Structure (SMILES) | IC50 (Fatty acid synthase [1]) | IC50 (Fatty acid synthase [2]) | IC50 [7] | IC50 [8] | further results
1 | N#Cc1cc(-c2ccccc2)nc(Oc2ccccc2)n1 | 12.2 µM (active) | 12.9 µM (active) | – | – | AC50 [3]: 6.79 µM (active); EC50 (Protein RecA): 17.7 µM (active)
2 | CCC(=O)Oc1cccc(C(=O)Nc2ccc(-c3nnc(-c4ccco4)o3)cc2)c1 | – | – | – | – | EC50 [4]: 3.89 µM (active); EC50 [5]: > 120 µM (not active); IC50 (H9c2): 22.7 µM (active); EC50 (H4): 6.33 µM (active)
3 | O=[N+]([O-])c1ccc(NCc2ccc(Cl)cc2)c2ccncc12 | 3.17 µM (active) | 3.75 µM (active) | – | – | EC50 (Streptococcus): > 150 µM (not active); EC50 (Streptokinase A): 15.1 µM (active); EC50 [6]: 32.3 µM (active)
4 | COc1cc2ncc(S(=O)(=O)c3ccccc3)c(N3CCC4(CC3)OCCO4)c2cc1OC | 2.55 µM (active) | 1.59 µM (active) | – | – | –
5 | CC(NC(=O)COC(=O)c1cc([N+](=O)[O-])ccc1N1CCOCC1)c1ccccc1 (stereo unspecified) | 4.64 µM (active) | 2.93 µM (active) | – | – | –
6 | CN(C)S(=O)(=O)c1cccc(NC(=O)c2cc([N+](=O)[O-])ccc2N2CCCCC2)c1 | 13.1 µM (active) | 12.2 µM (active) | – | – | –
7 | COc1ccc(N2C(=O)NC3CC2(C)Oc2ccc(Br)cc23)cc1OC (stereo unspecified) | 4.93 µM (active) | 5.33 µM (active) | – | – | –
8 | O=C(CN1C(=O)S/C(=C/c2ccncc2)C1=O)N1CCOCC1 | – | – | > 66 µM (inactive) | > 66 µM (inactive) | –
9 | O=C(NCCc1cccc(Cl)c1)c1ccc(Cl)c([N+](=O)[O-])c1 | 9.28 µM (active) | 9.95 µM (active) | – | – | –
10 | Cc1onc(-c2c(F)cccc2Cl)c1C(=O)NC(=S)NC1CCS(=O)(=O)C1 (stereo unspecified) | – | – | > 66 µM (inactive) | > 66 µM (inactive) | –
11 | COc1ccc(C2(CNC(=O)c3cccc([N+](=O)[O-])c3)CCCCC2)cc1OC | 14.9 µM (active) | 10.2 µM (active) | – | – | –
12 | COc1ccc(C(=O)NCc2ccc3c(c2)cc(C)n3C)cc1 | – | – | > 66 µM (inactive) | > 66 µM (inactive) | IC50 (Protein skinhead-1): > 100 µM (inactive); EC50 [9]: > 112 µM (not active); EC50 [10]: > 112 µM (not active)
13 | COC(=O)CSc1[nH]c2ccccc2c1[N+](=O)[O-] | – | – | > 66 µM (inactive) | > 66 µM (inactive) | –
14 | COc1nccnc1NS(=O)(=O)c1ccc(NC(=S)NC(=O)/C=C/c2ccccc2)cc1 | – | – | > 66 µM (inactive) | > 66 µM (inactive) | –
15 | c1cc2c3c(cccc3c1)NC1(CCCC1)N2 | – | – | > 66 µM (inactive) | > 66 µM (inactive) | –
16 | CCCCN1CC(COCc2ccccc2)Oc2cccc(OCCN3C(=O)[C@@H]4[C@H](C3=O)C3C=C[C@H]4C3)c2S1(=O)=O (stereo partly specified) | – | – | – | – | IC50 (H9c2): > 79 µM (inactive); EC50 [11]: 5.15 µM (active)
17 | CSc1nsc(NN)n1 | – | – | > 66 µM (inactive) | > 66 µM (inactive) | –
18 | Cc1cc(Cl)ccc1NC(=O)CCC(=O)N/N=C/c1cc([N+](=O)[O-])ccc1O | 12.8 µM (active) | 8.57 µM (active) | – | – | –
